Results published in US20240279240A1, “HETEROCYCLIC DERIVATIVES AS JANUS KINASE INHIBITORS” (CHIESI FARMACEUTICI S.P.A., priority 2021, published 2024).

Legend:
JAK 3 = target: T1, JAK 3 (Homo sapiens, UniProt P52333); test: Biochemical potency on JAK3, TR-FRET LANCE Ultra kinase assay (examples 1-99); conditions: ATP at Km (0.2 μM), read-out: JAK3 inhibitory activity (pIC50 class) (converted)
T1 sequence (P52333 1-1124): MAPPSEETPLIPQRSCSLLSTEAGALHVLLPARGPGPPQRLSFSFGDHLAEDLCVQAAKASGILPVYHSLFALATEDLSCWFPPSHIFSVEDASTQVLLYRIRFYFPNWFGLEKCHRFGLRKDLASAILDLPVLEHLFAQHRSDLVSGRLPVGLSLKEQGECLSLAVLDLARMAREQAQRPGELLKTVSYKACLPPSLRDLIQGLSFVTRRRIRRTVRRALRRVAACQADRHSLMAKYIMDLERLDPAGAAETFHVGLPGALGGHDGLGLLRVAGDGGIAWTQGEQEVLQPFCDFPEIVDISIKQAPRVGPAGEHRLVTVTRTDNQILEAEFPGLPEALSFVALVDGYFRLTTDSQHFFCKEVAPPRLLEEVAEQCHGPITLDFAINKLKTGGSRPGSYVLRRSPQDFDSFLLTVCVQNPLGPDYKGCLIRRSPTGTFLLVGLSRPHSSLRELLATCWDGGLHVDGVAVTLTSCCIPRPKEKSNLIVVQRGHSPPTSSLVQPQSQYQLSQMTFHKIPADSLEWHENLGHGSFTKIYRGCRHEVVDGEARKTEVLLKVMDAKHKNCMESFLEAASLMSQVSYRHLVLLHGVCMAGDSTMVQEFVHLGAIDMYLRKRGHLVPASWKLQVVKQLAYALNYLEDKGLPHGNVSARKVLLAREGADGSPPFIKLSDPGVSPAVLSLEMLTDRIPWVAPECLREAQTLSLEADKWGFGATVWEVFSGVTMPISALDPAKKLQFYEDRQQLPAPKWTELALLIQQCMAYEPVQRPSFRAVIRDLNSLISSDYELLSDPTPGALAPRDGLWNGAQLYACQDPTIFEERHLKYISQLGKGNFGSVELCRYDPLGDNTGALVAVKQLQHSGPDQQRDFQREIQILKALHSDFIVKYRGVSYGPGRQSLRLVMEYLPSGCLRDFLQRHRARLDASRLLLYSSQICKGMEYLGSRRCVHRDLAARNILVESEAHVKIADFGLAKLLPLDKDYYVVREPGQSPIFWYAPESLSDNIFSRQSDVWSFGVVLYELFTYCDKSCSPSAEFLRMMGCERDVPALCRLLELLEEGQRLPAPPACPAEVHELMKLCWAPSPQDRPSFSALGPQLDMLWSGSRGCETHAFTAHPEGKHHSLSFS
How it was run: (§1)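 LANCE Ultra TR-FRET with ULight-JAK-1 (Tyr1023) peptide at 30/50/20/10 nM and ATP (~Km) at 20/0.7/0.2/12 μM for JAK1/JAK2/JAK3/TYK2; enzymes 0.15/0.083/0.025/0.144 ng/μL. 1.5 h at r.t., EDTA stop, Eu-anti-phosphotyrosine read. 11-point 5-fold series from 20 μM; IC50 by variable-slope fit.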

JAK 1 = JAK 1 (Homo sapiens, UniProt P23458); test: Biochemical potency on JAK1, TR-FRET LANCE Ultra kinase assay (examples 1-99); conditions: ATP at Km (20 μM), read-out: JAK1 inhibitory activity (pIC50 class) (converted)
How it was run: as §1

TYK2 = TYK2 (Homo sapiens, UniProt P29597); test: Biochemical potency on Tyk2, TR-FRET LANCE Ultra kinase assay (examples 1-99); conditions: ATP at Km (12 μM), read-out: Tyk2 inhibitory activity (pIC50 class) (converted)
How it was run: as §1

JAK 2 = JAK 2 (Homo sapiens, UniProt O60674); test: Biochemical potency on JAK2, TR-FRET LANCE Ultra kinase assay (examples 1-99); conditions: ATP at Km (0.7 μM), read-out: JAK2 inhibitory activity (pIC50 class) (converted)
How it was run: as §1

Chain of JAK 1 (P23458 whole entry): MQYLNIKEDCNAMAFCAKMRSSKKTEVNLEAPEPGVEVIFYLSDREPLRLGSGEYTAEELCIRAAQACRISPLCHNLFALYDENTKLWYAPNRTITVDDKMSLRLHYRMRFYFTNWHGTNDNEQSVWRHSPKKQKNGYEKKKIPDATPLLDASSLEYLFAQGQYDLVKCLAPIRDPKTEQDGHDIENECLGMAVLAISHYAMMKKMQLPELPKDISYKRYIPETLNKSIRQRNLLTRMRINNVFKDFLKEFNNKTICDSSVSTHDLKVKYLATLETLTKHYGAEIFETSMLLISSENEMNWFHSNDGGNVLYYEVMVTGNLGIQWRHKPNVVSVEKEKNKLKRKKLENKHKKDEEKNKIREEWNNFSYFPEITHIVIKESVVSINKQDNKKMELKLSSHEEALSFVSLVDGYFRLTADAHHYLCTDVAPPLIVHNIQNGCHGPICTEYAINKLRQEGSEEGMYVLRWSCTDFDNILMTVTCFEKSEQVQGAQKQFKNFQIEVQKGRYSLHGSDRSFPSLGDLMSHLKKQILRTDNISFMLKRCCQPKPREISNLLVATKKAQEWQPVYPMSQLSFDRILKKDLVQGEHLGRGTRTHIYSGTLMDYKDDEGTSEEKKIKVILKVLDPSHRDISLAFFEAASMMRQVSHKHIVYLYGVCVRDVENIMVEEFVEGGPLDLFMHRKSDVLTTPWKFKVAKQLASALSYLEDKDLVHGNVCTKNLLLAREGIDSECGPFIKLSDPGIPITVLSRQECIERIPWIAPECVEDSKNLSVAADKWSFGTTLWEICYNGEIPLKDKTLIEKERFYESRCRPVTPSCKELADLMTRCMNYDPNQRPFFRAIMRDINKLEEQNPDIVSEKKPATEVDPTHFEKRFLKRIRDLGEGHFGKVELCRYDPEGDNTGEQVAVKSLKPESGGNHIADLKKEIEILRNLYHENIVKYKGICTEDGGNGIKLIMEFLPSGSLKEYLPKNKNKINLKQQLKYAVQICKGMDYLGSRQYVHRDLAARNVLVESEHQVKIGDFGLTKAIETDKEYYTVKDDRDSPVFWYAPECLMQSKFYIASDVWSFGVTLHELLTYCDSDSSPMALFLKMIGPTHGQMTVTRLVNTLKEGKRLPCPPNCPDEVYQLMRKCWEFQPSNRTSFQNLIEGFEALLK
Chain of JAK 2 (O60674 whole entry): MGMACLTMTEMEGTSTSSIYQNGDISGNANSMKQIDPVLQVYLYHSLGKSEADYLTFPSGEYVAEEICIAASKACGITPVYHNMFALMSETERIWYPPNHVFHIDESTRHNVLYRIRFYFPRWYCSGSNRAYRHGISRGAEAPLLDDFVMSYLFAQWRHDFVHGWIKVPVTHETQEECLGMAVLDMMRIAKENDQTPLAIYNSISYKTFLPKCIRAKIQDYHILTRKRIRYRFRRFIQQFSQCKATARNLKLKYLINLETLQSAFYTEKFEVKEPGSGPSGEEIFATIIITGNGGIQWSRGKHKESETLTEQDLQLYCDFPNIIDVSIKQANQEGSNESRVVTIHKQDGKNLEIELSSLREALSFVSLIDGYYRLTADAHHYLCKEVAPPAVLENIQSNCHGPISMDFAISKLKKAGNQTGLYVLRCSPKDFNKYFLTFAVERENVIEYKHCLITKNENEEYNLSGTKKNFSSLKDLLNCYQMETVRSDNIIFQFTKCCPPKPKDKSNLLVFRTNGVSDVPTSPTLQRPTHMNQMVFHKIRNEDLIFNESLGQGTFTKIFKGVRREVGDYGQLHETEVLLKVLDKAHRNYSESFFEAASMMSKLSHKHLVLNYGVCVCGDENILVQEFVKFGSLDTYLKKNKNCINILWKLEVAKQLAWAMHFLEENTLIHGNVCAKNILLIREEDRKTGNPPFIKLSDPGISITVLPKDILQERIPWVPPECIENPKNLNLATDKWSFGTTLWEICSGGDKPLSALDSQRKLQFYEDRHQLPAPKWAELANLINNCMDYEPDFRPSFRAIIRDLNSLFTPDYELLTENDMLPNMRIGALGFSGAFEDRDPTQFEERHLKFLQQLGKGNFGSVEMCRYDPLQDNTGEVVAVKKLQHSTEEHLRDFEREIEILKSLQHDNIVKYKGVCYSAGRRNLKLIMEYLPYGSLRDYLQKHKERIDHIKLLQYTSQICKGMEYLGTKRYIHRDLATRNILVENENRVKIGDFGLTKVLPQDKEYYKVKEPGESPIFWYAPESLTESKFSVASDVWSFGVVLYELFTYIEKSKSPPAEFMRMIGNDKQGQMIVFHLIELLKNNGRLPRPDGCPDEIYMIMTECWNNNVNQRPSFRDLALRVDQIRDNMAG
Chain of TYK2 (P29597 whole entry): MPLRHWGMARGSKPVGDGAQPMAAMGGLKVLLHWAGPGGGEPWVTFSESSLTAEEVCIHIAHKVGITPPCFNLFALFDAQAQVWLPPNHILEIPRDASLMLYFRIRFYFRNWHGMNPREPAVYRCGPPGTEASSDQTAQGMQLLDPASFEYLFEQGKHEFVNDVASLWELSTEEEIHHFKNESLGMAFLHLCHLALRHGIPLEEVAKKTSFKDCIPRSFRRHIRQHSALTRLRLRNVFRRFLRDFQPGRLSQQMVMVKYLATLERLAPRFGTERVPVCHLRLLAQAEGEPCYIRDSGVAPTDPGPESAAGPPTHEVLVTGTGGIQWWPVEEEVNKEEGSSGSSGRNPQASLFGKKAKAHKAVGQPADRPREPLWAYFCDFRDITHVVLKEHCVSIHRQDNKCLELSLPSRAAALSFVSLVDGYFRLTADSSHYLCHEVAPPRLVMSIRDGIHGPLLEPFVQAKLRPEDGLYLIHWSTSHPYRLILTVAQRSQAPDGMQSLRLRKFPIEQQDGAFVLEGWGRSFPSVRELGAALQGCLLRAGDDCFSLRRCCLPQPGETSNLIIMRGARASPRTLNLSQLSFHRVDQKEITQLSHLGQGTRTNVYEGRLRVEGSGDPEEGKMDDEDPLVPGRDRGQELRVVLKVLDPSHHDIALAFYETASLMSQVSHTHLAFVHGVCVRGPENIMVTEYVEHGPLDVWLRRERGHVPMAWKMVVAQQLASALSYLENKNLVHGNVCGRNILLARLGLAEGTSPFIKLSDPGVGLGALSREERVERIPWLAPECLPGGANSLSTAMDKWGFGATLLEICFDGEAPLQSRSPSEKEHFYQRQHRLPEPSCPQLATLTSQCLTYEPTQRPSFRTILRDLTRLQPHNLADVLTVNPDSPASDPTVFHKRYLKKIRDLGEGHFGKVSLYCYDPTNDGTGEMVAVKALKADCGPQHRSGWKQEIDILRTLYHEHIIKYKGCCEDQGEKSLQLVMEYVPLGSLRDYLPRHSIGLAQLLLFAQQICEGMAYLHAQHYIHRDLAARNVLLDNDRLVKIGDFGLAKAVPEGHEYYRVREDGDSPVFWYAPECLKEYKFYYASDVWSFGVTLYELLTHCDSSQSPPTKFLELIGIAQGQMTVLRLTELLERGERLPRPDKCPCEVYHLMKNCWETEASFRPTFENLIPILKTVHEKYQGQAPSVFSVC

CNC(=O)CSc1ccc(OC(F)F)c(-n2nc(C)c3cnc(-c4cnn5cccnc45)cc32)c1 [Example 67, 2-((4-(difluoromethoxy)-3-(3-methyl-6-(pyrazolo[1,5-a]pyrimidin-3-yl)-1H-pyrazolo[4,3-c]pyridin-1-yl)phenyl)thio)-N-methylacetamide]
IC50 (JAK 3): 5.01 to 50.1 nM | IC50 (JAK 1): 5.01 to 50.1 nM | IC50 (TYK2): > 50.1 nM | IC50 (JAK 2): 5.01 to 50.1 nM

COc1ccc(Cl)cc1-n1nc(N2CCN(C(C)=O)CC2)c2cnc(-c3cnn4cccnc34)cc21 [Example 47, 1-(4-(1-(5-chloro-2-methoxyphenyl)-6-(pyrazolo[1,5-a]pyrimidin-3-yl)-1H-pyrazolo[4,3-c]pyridin-3-yl)piperazin-1-yl)ethan-1-one]
IC50 (JAK 3): 5.01 to 50.1 nM | IC50 (JAK 1): 5.01 to 50.1 nM | IC50 (TYK2): > 50.1 nM | IC50 (JAK 2): 5.01 to 50.1 nM

CNCc1nn(-c2cc(S(C)(=O)=O)ccc2OC)c2cc(-c3cnn4cccnc34)ncc12 [Example 89, 1-(1-(2-Methoxy-5-(methylsulfonyl)phenyl)-6-(pyrazolo[1,5-a]pyrimidin-3-yl)-1H-pyrazolo[4,3-c]pyridin-3-yl)-N-methylmethanamine]
IC50 (JAK 3): > 50.1 nM | IC50 (JAK 1): 5.01 to 50.1 nM | IC50 (TYK2): > 50.1 nM | IC50 (JAK 2): 5.01 to 50.1 nM

COc1ccc(F)cc1-n1nc(C(=O)NCCCN(C)C)c2cnc(Nc3ncc[nH]c3=O)cc21 [Example 96, N-(3-(dimethylamino)propyl)-1-(5-fluoro-2-methoxyphenyl)-6-((3-oxo-3,4-dihydropyrazin-2-yl)amino)-1H-pyrazolo[4,3-c]pyridine-3-carboxamide]
IC50 (JAK 3): 5.01 to 50.1 nM | IC50 (JAK 1): 5.01 to 50.1 nM | IC50 (TYK2): 5.01 to 50.1 nM | IC50 (JAK 2): 5.01 to 50.1 nM

COc1ccc(F)cc1-n1nc(NCCCN(C)C)c2cnc(Nc3ncc[nH]c3=O)cc21 [Example 97, 3-((3-((3-(dimethylamino)propyl)amino)-1-(5-fluoro-2-methoxyphenyl)-1H-pyrazolo[4,3-c]pyridin-6-yl)amino)pyrazin-2(1H)-one]
IC50 (JAK 3): ≤ 5.01 nM | IC50 (JAK 1): 5.01 to 50.1 nM | IC50 (TYK2): 5.01 to 50.1 nM | IC50 (JAK 2): ≤ 5.01 nM

Cc1nn(-c2cc(Cl)ccc2SC(F)F)c2cc(-c3cnn4cccnc34)ncc12 [Example 6, 1-(5-chloro-2-((difluoromethyl)thio)phenyl)-3-methyl-6-(pyrazolo[1,5-a]pyrimidin-3-yl)-1H-pyrazolo[4,3-c]pyridine]
IC50 (JAK 3): ≤ 5.01 nM | IC50 (JAK 1): 5.01 to 50.1 nM | IC50 (TYK2): 5.01 to 50.1 nM | IC50 (JAK 2): 5.01 to 50.1 nM

COc1ccc(Cl)cc1-n1nc(C(=O)N[C@H]2C[C@H](N(C)C)C2)c2cnc(-c3cnn4cccnc34)cc21 [Example 80, 1-(5-chloro-2-methoxyphenyl)-N-((1r,3r)-3-(dimethylamino)cyclobutyl)-6-(pyrazolo[1,5-a]pyrimidin-3-yl)-1H-pyrazolo[4,3-c]pyridine-3-carboxamide]
IC50 (JAK 3): 5.01 to 50.1 nM | IC50 (JAK 1): 5.01 to 50.1 nM | IC50 (TYK2): 5.01 to 50.1 nM | IC50 (JAK 2): 5.01 to 50.1 nM

CSc1ccc(Cl)cc1-n1nc(C)c2cnc(-c3cnn4cccnc34)cc21 [Example 5, 1-(5-chloro-2-(methylthio)phenyl)-3-methyl-6-(pyrazolo[1,5-a]pyrimidin-3-yl)-1H-pyrazolo[4,3-c]pyridine]
IC50 (JAK 3): 5.01 to 50.1 nM | IC50 (JAK 1): 5.01 to 50.1 nM | IC50 (TYK2): 5.01 to 50.1 nM | IC50 (JAK 2): ≤ 5.01 nM

COc1ccc(S(=O)(=O)NCCO)cc1-n1nc(C)c2cnc(Nc3ncc[nH]c3=O)cc21 [Example 92, N-(2-hydroxyethyl)-4-methoxy-3-(3-methyl-6-((3-oxo-3,4-dihydropyrazin-2-yl)amino)-1H-pyrazolo[4,3-c]pyridin-1-yl)benzenesulfonamide]
IC50 (JAK 3): ≤ 5.01 nM | IC50 (JAK 1): 5.01 to 50.1 nM | IC50 (TYK2): > 50.1 nM | IC50 (JAK 2): ≤ 5.01 nM

COc1cc(O)c(C)cc1-n1nc(C)c2cnc(-c3cnn4cccnc34)cc21 [Example 60, 5-methoxy-2-methyl-4-(3-methyl-6-(pyrazolo[1,5-a]pyrimidin-3-yl)-1H-pyrazolo[4,3-c]pyridin-1-yl)phenol]
IC50 (JAK 3): ≤ 5.01 nM | IC50 (JAK 1): ≤ 5.01 nM | IC50 (TYK2): 5.01 to 50.1 nM | IC50 (JAK 2): ≤ 5.01 nM
